This is an account of results in US5292901A, “Benzodioxole derivatives” (Eisai Co., Ltd., priority 1987, dated 1994).

Assay type in all cases: in vivo, male Fischer (F344) rats
Experiment [1] concerns liver injury induced by D-galactosamine. Nature of the experiment: Experimental Example 1b: effect on liver injury induced by D-galactosamine in rats (group I-b). The following applies: Rattus norvegicus, po, 48 h, Table 1b, D-galactosamine 400 mg/kg; for inhibition in vivo at 100 mg/kg: compound 100 mg/kg in 0.5% methylcellulose; for inhibition in vivo at 50 mg/kg: values marked *: administration of 50 mg/kg.

The test system is the same in experiment [2]. Nature of the experiment: Experimental Example 1f: effect on liver injury induced by D-galactosamine in rats (group I-f). To be noted: Rattus norvegicus, po, 48 h, Table 1f, D-galactosamine 400 mg/kg, compound 100 mg/kg in 0.5% methylcellulose. On the procedure: (§1) 300 mg/kg of D-galactosamine was administered to male Fischer (F344) rats weighing around 180 g by subcutaneous injection to induce liver injury. Each compound was dissolved in distilled water was given by oral administration in a dose of 50 mg/kg one hour after the injection of D-galactosamine.
(§2) The D-galactosamine was used in the form of a solution having a concentration of 200 mg/ml, obtained by dissolving D-galactosamine in a physiological saline solution to obtain a dilute D-galactosamine solution and adjusting the pH of the dilute solution to 7.0 with 10N aqueous potassium hydroxide.
(§3) Blood was collected from the rat's tail vein 48 h after the injection of D-galactosamine. The blood coagulation time was determined by the hepaplastin test (HPT) and GPT activity in the blood plasma was determined by an enzymatic method.
The test was conducted in the same way as shown in Experimental Example 1a except that 400 mg/kg of D-galactosamine was administered in its physiological saline solution and each test compound was used in an amount of 100 mg/kg in 0.5% methylcellulose liquid.

For experiment [3] the test system is unchanged. Nature of the experiment: Experimental Example 1d: effect on liver injury induced by D-galactosamine in rats (group I-d). To be noted: Rattus norvegicus, Table 1d, D-galactosamine 300 mg/kg s.c., compound 50 mg/kg oral in distilled water or 0.5% methylcellulose, 48 h. On the procedure:
as §1, §2, §3

Experiment [4] has the same test system. Put plainly: Experimental Example 1e: effect on liver injury induced by D-galactosamine in rats (group I-e). To be noted: Rattus norvegicus, po, 48 h, Table 1e, D-galactosamine 400 mg/kg, compound 100 mg/kg in 0.5% aqueous methylcellulose. On the procedure: The D-galactosamine was used in the form of a solution having a concentration of 200 mg/ml, obtained by dissolving D-galactosamine in a physiological saline solution to obtain a dilute D-galactosamine solution and adjusting the pH of the dilute solution to 7.0 with 10N aqueous potassium hydroxide. Blood was collected from the rat's tail vein 48 h after the injection of D-galactosamine. The blood coagulation time was determined by the […]) and GPT activity in the blood plasma was determined by an enzymatic method.

The mark [5] stands for this setting: read-out: Inhibition ratio (%) GPT.
[6] abbreviates: read-out: Inhibition ratio (%) HPT.

Molecules are shown by their SMILES.

Consider `SCCc1ccc2c(c1)OCO2` [Compound 1, 2-(1,3-Benzodioxol-5-yl)ethanethiol], for which the inhibition in vivo at 100 mg/kg in experiment [1] (setting [5]) is 91%; in experiment [1] (setting [6]), 96%.
On to `Cc1cc2c(cc1C(C)SCC(=O)O)OCO2` (centres unmarked) [Compound 3], for which the inhibition in vivo at 100 mg/kg in experiment [2] (setting [5]) and in experiment [2] (setting [6]) was 100% each time.
On to `N#CCS(=O)(=O)CCc1ccc2c(c1)OCO2` [Compound 37], for which the figures for the inhibition in vivo at 50 mg/kg in experiment [3] (setting [5]) and in experiment [3] (setting [6]) were 52% and 44%, respectively.
In the same order, the values of `N#CC[S+]([O-])CCc1ccc2c(c1)OCO2` (centres unmarked) [Compound 33] are 82% and 78%.
For `c1ncc(CSCCc2ccc3c(c2)OCO3)[nH]1` [Compound 8], the values for the inhibition in vivo at 50 mg/kg in experiment [3] (setting [5]) and in experiment [3] (setting [6]) were 28% and 61%, respectively.
For `CN(C)C(=O)CCSCCc1ccc2c(c1)OCO2` [Compound 19], the inhibition in vivo at 100 mg/kg in experiment [1] (setting [5]) worked out at 69%; in experiment [1] (setting [6]) it was 90%.
Consider `c1cc(CSCCc2ccc3c(c2)OCO3)ccn1` [Example 6, 2-(1,3-Benzodioxol-5-yl)ethyl (pyridin-4-yl)methyl sulfide], for which the inhibition in vivo at 50 mg/kg in experiment [3] (setting [5]) came out at 64%; in experiment [3] (setting [6]) it was 76%.
In the same order, the values of `CCC(Cc1ccc2c(c1)OCO2)SCC(=O)O` (centres unmarked) [Example 26, Sodium [[1-{(1,3-benzodioxol-5-yl)methyl}propyl]thio]acetate] are 53% and 48%.
In the same order, the values of `CC(=O)CS(=O)(=O)CCc1ccc2c(c1)OCO2` [Compound 34] are 37% and 17%.
Taken in the same sequence, the figures for `CC1Oc2ccc(CCSCC(=O)O)cc2O1` (centres unmarked) [Example 12, Sodium [{2-(2-methyl-1,3-benzodioxol-5-yl)ethyl}-thio]acetate] were 85% and 85%.
As to `OCCSCCc1ccc2c(c1)OCO2` [Compound 3], the inhibition in vivo at 100 mg/kg stood at 97% in experiment [1] (setting [5]) and 94% in experiment [1] (setting [6]).
With `Cc1cc2c(cc1CCSCC(=O)O)OCO2` [Compound 16], the inhibition in vivo at 50 mg/kg came out at 25% in experiment [3] (setting [5]) and 41% in experiment [3] (setting [6]).
For `CC(Cc1ccc2c(c1)OCO2)SSCCO` (centres unmarked) [Compound 12, 2-[{2-(1,3-Benzodioxol-5-yl)-1-methylethyl}dithio]ethanol], the inhibition in vivo at 100 mg/kg in experiment [4] (setting [5]) is 63%; in experiment [4] (setting [6]), 45%.
Take `c1ccc(CCSSCCCc2ccc3c(c2)OCO3)cc1` [Compound 6, 3-(1,3-Benzodioxol-5-yl)propyl phenethyl disulfide]: the inhibition in vivo at 100 mg/kg was 55% in experiment [4] (setting [5]) and 53% in experiment [4] (setting [6]).
On to `CC(C)c1cc2c(cc1CCSCC(=O)O)OCO2` [Compound 9], for which the inhibition in vivo at 100 mg/kg in experiment [2] (setting [5]) came to 88%; in experiment [2] (setting [6]), 67%.
With `O=C(OCCSSCc1ccc2c(c1)OCO2)c1cccnc1` [Compound 10, 2-[{(1,3-Benzodioxol-5-yl)methyl}dithio]ethyl nicotinate], the values for the inhibition in vivo at 100 mg/kg in experiment [4] (setting [5]) and in experiment [4] (setting [6]) were 72% and 43%, respectively.
`[O-][S+](CCO)CCc1ccc2c(c1)OCO2` (centres unmarked) [Compound 27]: the inhibition in vivo at 100 mg/kg was 54% in experiment [1] (setting [5]) and 65% in experiment [1] (setting [6]).
Take `O=C(O)CCCCCSCCc1ccc2c(c1)OCO2` [Compound 12]: the inhibition in vivo at 50 mg/kg turned out to be 69% in experiment [1] (setting [5]) and 75% in experiment [1] (setting [6]).
For the compound `CCCC(SCC(=O)O)c1ccc2c(c1)OCO2` (centres unmarked) [Compound 1], the figures for the inhibition in vivo at 100 mg/kg in experiment [2] (setting [5]) and in experiment [2] (setting [6]) were 84% and 100%, respectively.
As for `OCCSSCCc1ccc2c(c1)OCO2` [Compound 1, 2-[{2-(1,3-Benzodioxol-5-yl)ethyl}dithio]ethanol], the inhibition in vivo at 100 mg/kg in experiment [4] (setting [5]) was 92%; in experiment [4] (setting [6]) it was 62%.
Turning to `CC(C)S(=O)(=O)CCc1ccc2c(c1)OCO2` [Compound 36], the figures for the inhibition in vivo at 50 mg/kg in experiment [3] (setting [5]) and in experiment [3] (setting [6]) were 59% and 68%, respectively.
For `Cc1cc2c(cc1CSCC(=O)O)OCO2` [Compound 6], the inhibition in vivo at 100 mg/kg in experiment [2] (setting [5]) and in experiment [2] (setting [6]) was 100% each time.
Turning to `N#CC(SCCc1ccc2c(c1)OCO2)C(=O)O` (centres unmarked) [Compound 28], the inhibition in vivo at 50 mg/kg was 44% in experiment [3] (setting [5]) and 45% in experiment [3] (setting [6]).
With `O=C(O)CNC(=O)CSCCc1ccc2c(c1)OCO2` [Compound 23], the results for the inhibition in vivo at 100 mg/kg in experiment [1] (setting [5]) and in experiment [1] (setting [6]) were 77% and 92%, respectively.
Regarding `CCCCCCCCCSSCCCc1ccc2c(c1)OCO2` [Compound 9, 3-(1,3-Benzodioxol-5-yl)propyl nonyl disulfide], the inhibition in vivo at 100 mg/kg in experiment [4] (setting [5]) is 53%; in experiment [4] (setting [6]), 49%.
In the case of `c1ccc(CSCCc2ccc3c(c2)OCO3)nc1` [Example 7, 2-(1,3-Benzodioxol-5-yl)ethyl (pyridin-2-yl)methyl sulfide], the figures for the inhibition in vivo at 50 mg/kg in experiment [3] (setting [5]) and in experiment [3] (setting [6]) were 37% and 58%, respectively.
On to `O=C(OCCSSCCc1ccc2c(c1)OCO2)c1cccnc1` [Compound 3, 2-[{2-(1,3-Benzodioxol-5-yl)ethyl}dithio]ethyl nicotinate], for which the inhibition in vivo at 100 mg/kg in experiment [4] (setting [5]) was 92%; in experiment [4] (setting [6]), 62%.
For the compound `CC(C)(SCC(=O)O)c1ccc2c(c1)OCO2` [Compound 2], the inhibition in vivo at 100 mg/kg in experiment [2] (setting [5]) came out at 76%; in experiment [2] (setting [6]) it was 83%.
On to `O=C(O)CSCCc1ccc2c(c1)OCO2` [Compound 8, Sodium [{2-(1,3-benzodioxol-5-yl)ethyl}thio]acetate], for which the inhibition in vivo at 100 mg/kg in experiment [1] (setting [5]) and in experiment [1] (setting [6]) was 97% throughout.
Consider `CCC(SCC(=O)O)c1cc2c(cc1C)OCO2` (centres unmarked) [Compound 4], for which the inhibition in vivo at 100 mg/kg was 89% in experiment [2] (setting [5]) and 100% in experiment [2] (setting [6]).
In the case of `CCS(=O)(=O)CCc1ccc2c(c1)OCO2` [Compound 35], the inhibition in vivo at 50 mg/kg in experiment [3] (setting [5]) was 76%; in experiment [3] (setting [6]), 60%.
In the case of `CC(C)(SCC(N)=O)c1ccc2c(c1)OCO2` [Compound 11], the inhibition in vivo at 100 mg/kg came to 97% in experiment [2] (setting [5]) and 68% in experiment [2] (setting [6]).
On to `N#CCSCCc1ccc2c(c1)OCO2` [Example 2, [{2-(1,3-Benzodioxol-5-yl)ethyl}thio]acetonitrile], for which the inhibition in vivo at 50 mg/kg in experiment [3] (setting [5]) is 88%; in experiment [3] (setting [6]), 100%.
Consider `CCCC(SCC(=O)NCC(=O)O)c1ccc2c(c1)OCO2` (centres unmarked) [Compound 17], for which the inhibition in vivo at 100 mg/kg in experiment [2] (setting [5]) is 91%; in experiment [2] (setting [6]) it was 70%.
For `CC(Cc1ccc2c(c1)OCO2)SSC(C)Cc1ccc2c(c1)OCO2` (centres unmarked) [compound 11], the figures for the inhibition in vivo at 100 mg/kg in experiment [4] (setting [5]) and in experiment [4] (setting [6]) were 76% and 68%, respectively.
Consider `c1cc2c(cc1CCSSCCc1ccc3c(c1)OCO3)OCO2` [Compound 2, Bis{2-(1,3-benzodioxol-5-yl)ethyl}disulfide], for which the inhibition in vivo at 100 mg/kg is 64% in experiment [4] (setting [5]) and 57% in experiment [4] (setting [6]).
As to `CC(C)(SCCc1ccc2c(c1)OCO2)C(=O)O` [Example 4, Sodium 2-methyl-2-[{2-(1,3-benzodioxol-5-yl)ethyl}thio]propionate], the inhibition in vivo at 50 mg/kg worked out at 84% in experiment [3] (setting [5]) and 91% in experiment [3] (setting [6]).
On to `O=C(OCCSSCCCc1ccc2c(c1)OCO2)c1cccnc1` [compound 7], for which the inhibition in vivo at 100 mg/kg is 72% in experiment [4] (setting [5]) and 43% in experiment [4] (setting [6]).
As to `COCCSCCc1ccc2c(c1)OCO2` [Compound 6], the inhibition in vivo at 100 mg/kg was determined as 79% in experiment [1] (setting [5]) and 93% in experiment [1] (setting [6]).
As to `CC(=O)CSCCc1ccc2c(c1)OCO2` [Example 1, [{2-(1,3-Benzodioxol-5-yl)ethyl}thio]propan-2-one], the inhibition in vivo at 50 mg/kg in experiment [3] (setting [5]) is 89%; in experiment [3] (setting [6]) it was 100%.
